Reference: article PMC10151334, “Anti-proliferative potential and oxidative reactivity of thermo-oxidative degradation products of stigmasterol and stigmasteryl esters for human intestinal cells” (Scientific Reports, 2023)

Legend:
[1] = tested on: CCD 841 CoN cells; parameters: method as in PMID 31883991; settings: colon mucosa CCD 841 CoN cells, MTT test; cited from earlier work
[2] = parameters: method as in PMID 31883991; settings: thermo-oxidative treatment; cited from earlier work
[3] = tested on: CCD 841 CoN cells; assay: Cell cycle analysis by flow cytometry (propidium iodide); assay type: cell-based, human; settings: 40 μg/mL, 24 h
Description: CCD 841 CoN cells were grown in 6-well plates at an initial cell density of 2 × 10^4 cells/cm^2 for 24 h under standard culture conditions. The cells were treated for 24 h with the analyzed compounds at a concentration of 40 μg/mL; the high dose was applied because of the relatively low cytotoxic potential of ST-OA and ST-LA as determined in cytotoxicity studies. In addition, the cells were exposed to 0.05 μM camptothecin (Sigma-Aldrich) as a positive reference compound known to modulate cell cycle progression.
After treatment, the cells were harvested by trypsinization, washed in PBS, and fixed in 70% ethanol. Then, the cells were stained with 50 μg/mL propidium iodide in the presence of 100 μg/mL RNase (Sigma-Aldrich). The sample preparation method and staining protocol were described previously. The cycle phase distribution was analyzed with an Amnis™ FlowSight™ flow cytometer (Luminex Corporation, TX, USA).

[4] = tested on: intracellular ROS in CCD 841 CoN cells; assay: Intracellular ROS measurement (DCFH-DA, flow cytometry); assay type: cell-based, human; settings: up to 40 μg/mL, 24 h
Description: CCD 841 CoN cells were grown in 6-well plates at an initial cell density of 2 × 10^4 cells/cm^2 for 24 h under standard culture conditions. The cell cultures were treated for 24 h with the analyzed compounds at a 40 μg/mL concentration. After treatment, the cells were harvested by trypsinization, washed with Hank's Balanced Salt Solution, and incubated with 10 μM 2′,7′-Dichlorodihydrofluorescein diacetate (DCFH-DA) (Life Technologies, Carlsbad, CA, USA) at 37 °C for 30 min. Intracellular DCF fluorescence (λex/em = 488/530 nm) was examined by flow cytometry (Amnis™ FlowSight™ flow cytometer).

[5] = tested on: S. typhimurium TA102; assay: Bacterial reverse mutation assay (Ames test), strain TA102; settings: 40 μg/mL, regardless of metabolic activation (+/− S9)
Description: Potential mutagenicity or pro-mutagenicity of non-heated and heated ST, ST-LA, and ST-OA was determined using the bacterial reverse mutation assay (Ames test) with Salmonella enterica subsp. enterica ser. typhimurium tester strains TA98, TA100, and TA102, which were obtained from the Polish Collection of Microorganisms of the Institute of Immunology and Experimental Therapy of the Polish Academy of Sciences in Wroclaw.
Mutagenicity experiments were performed in the liquid pre-incubation assay, without and with metabolic activation by supplying Aroclor 1254-induced rat liver microsomal fraction (S9, Sigma-Aldrich) with NADP and cofactors for NADPH-supported oxidation, according to the procedure described by Mortelmans and Zeiger[39]. Briefly, reaction mixtures, consisting of 12-h bacterial culture, non-heated and heated compound (ST, ST-LA, ST-OA) at a concentration of 40 μg, 0.2 M phosphate buffer (pH 7.4), and alternatively S9 activating mixture, were pre-incubated at 37 °C for 20 min. […] The mutagen, 2-aminoanthracene (5 μg) (Sigma-Aldrich), was a positive control in pro-mutagenicity experiments. After pre-incubation, the reaction mixtures were added to the top agar supplemented with traces of histidine and biotin and poured onto the plates covered with minimum glucose agar. The cultures were incubated for 48 h at 37 °C, and the number of revertants (His+) colonies was counted manually.
Compounds with MI ≥ 2 can be recognized as potentially mutagenic.

[6] = tested on: CCD 841 CoN cells; assay: DNA synthesis, BrdU incorporation (Cell Proliferation ELISA); assay type: cell-based, human; settings: 48 h
Description: CCD 841 CoN cells were grown in black 96-well plates at an initial cell density of 2 × 10^4 cells/cm^2 for 24 h under standard culture conditions. The cells were treated with ST (2.5, 5, 10, 20, and 40 μg/mL) and its esters ST-OA and ST-LA (10, 20, and 40 μg/mL) for 48 h. DNA synthesis was measured by incorporating thymidine analog 5-bromo-2′-deoxyuridine (BrdU) into newly synthesized DNA using the Cell Proliferation ELISA kit according to the protocol recommended by the manufacturer (Roche Diagnostics GmbH, Mannheim, Germany). Briefly, BrdU was added to the treated cells 24 h before the end of the exposure to the ST, ST-OA, and ST-LA (final BrdU concentration of 10 μM). After treatment, BrdU-labeled DNA was denatured (30 min, 20 °C). Then, BrdU was bonded with a peroxidase-conjugated anti-BrdU antibody (90 min, 20 °C) and reacted with the peroxidase substrate. The absorbance measurement was done with a stop solution (1 M H2SO4) at 450 nm with reference wavelength 690 nm using a Tecan M200 Infinite microplate reader.

## CC[C@H](/C=C/[C@@H](C)[C@H]1CC[C@H]2[C@@H]3CC=C4C[C@@H](O)CC[C@]4(C)[C@H]3CC[C@]12C)C(C)C [ST, Stigmasterol]
[1]
  half-maximal effective concentration (EC50), 50% decrease in cell viability: 2.95 µg/mL
[2]
  degradation of ST molecule due to the heating process: approximately 80%
[3]
  cell accumulation in G2/M phases: significant cell accumulation in the G2/M phases
[4]
  intracellular ROS production / oxidative reactivity: did not induce enhanced intracellular ROS production
[5]
  effect on TA102 revertants: did not affect the number of TA102 revertants
[6]; 5 μg/mL, P = 0.028
  decrease in DNA synthesis (BrdU incorporation): 10%
[6]; 40 μg/mL
  decrease in DNA synthesis (BrdU incorporation): 61%
[6]
  first dose that significantly inhibited DNA synthesis: 5 µg/mL
